US10633386B2, “BET protein degraders” (THE REGENTS OF THE UNIVERSITY OF MICHIGAN, priority 2016, dated 2020)
Where two headings read alike, the source gives them in different places.

Columns and labels:
CALU-1 = test: Cell growth inhibition (CellTiter-Glo), NSCLC line CALU-1; assay type: cell-based; conditions: CALU-1 non-small cell lung cancer cell line, 4 days
Experimental: (§1) Cell growth inhibitory activity of representative BET bromodomain degraders in representative non-small cell lung cancer cell lines was determined using the CellTiter-Glo® Luminescent Cell Viability Assay. Cells were seeded in 384-well white opaque cell culture plates at a density of 2,000 cells/well with serially diluted compounds and incubated at 37° C. in an atmosphere of 95% air and 5% CO2 for 4 days. Cell viability was determined using the CellTiter-Glo® Luminescent Cell Viability Assay Kit (Promega, Madison, Wis.) according to the manufacture's instruction. Briefly, a volume of CellTiter-Glo® Reagent equal to the volume of cell culture medium was added to each well, and then the plates were incubated at room temperature for 10-20 minutes. The luminescent signal was measured using a Tecan Infinite M1000 multimode microplate reader (Tecan, Morrisville, N.C.). The half maximal inhibitory concentration (IC50) was calculated using the GraphPad Prism 5 software (GraphPad Software, La Jolla, Calif.). Cpd. A is a BET bromodomain inhibitor, see U.S. Appl.

H1975 = test: Cell growth inhibition (CellTiter-Glo), NSCLC line H1975; assay type: cell-based; conditions: H1975 non-small cell lung cancer cell line, 4 days
Experimental: as §1

H1650 = test: Cell growth inhibition (CellTiter-Glo), NSCLC line H1650; assay type: cell-based; conditions: H1650 non-small cell lung cancer cell line, 4 days
Experimental: as §1

H2009 = test: Cell growth inhibition (CellTiter-Glo), NSCLC line H2009; assay type: cell-based; conditions: H2009 non-small cell lung cancer cell line, 4 days
Experimental: as §1

H1792 = test: Cell growth inhibition (CellTiter-Glo), NSCLC line H1792; assay type: cell-based; conditions: H1792 non-small cell lung cancer cell line, 4 days
Experimental: as §1

H2030 = test: Cell growth inhibition (CellTiter-Glo), NSCLC line H2030; assay type: cell-based; conditions: H2030 non-small cell lung cancer cell line, 4 days
Experimental: as §1

H2228 = test: Cell growth inhibition (CellTiter-Glo), NSCLC line H2228; assay type: cell-based; conditions: H2228 non-small cell lung cancer cell line, 4 days
Experimental: as §1

H1437 = test: Cell growth inhibition (CellTiter-Glo), NSCLC line H1437; assay type: cell-based; conditions: H1437 non-small cell lung cancer cell line, 4 days
Experimental: as §1

H460 = test: Cell growth inhibition (CellTiter-Glo), NSCLC line H460; assay type: cell-based; conditions: H460 non-small cell lung cancer cell line, 4 days
Experimental: as §1

H647 = test: Cell growth inhibition (CellTiter-Glo), NSCLC line H647; assay type: cell-based; conditions: H647 non-small cell lung cancer cell line, 4 days
Experimental: as §1

H23 = test: Cell growth inhibition (CellTiter-Glo), NSCLC line H23; assay type: cell-based; conditions: H23 non-small cell lung cancer cell line, 4 days
Experimental: as §1

HCC38 = test: Cell growth inhibition (CellTiter-Glo), breast cancer line HCC38; assay type: cell-based; conditions: 4 days
Experimental: (§2) Cell growth inhibitory activity of representative BET bromodomain degraders in representative breast cancer cell lines was determined using the CellTiter-Glo® Luminescent Cell Viability Assay. SUM-52 and SUM-159 cell lines were established at the University of Michigan Comprehensive Cancer Center. All the other breast cancer cell lines were obtained from the ATCC (Manassas, Va.). Cells were seeded in 384-well cell culture plates at a density of 1,000-2,500 cells/well with serially diluted compounds and incubated at 37° C. in an atmosphere of 95% air and 5% CO2 for 4 days. Cell viability was determined using the CellTiter-Glo® Luminescent Cell Viability Assay Kit (Promega, Madison, Wis.) according to the manufacture's instruction. Briefly, a volume of CellTiter-Glo® Reagent equal to the volume of cell culture medium was added to each well, and then the plates were incubated at room temperature for 20-60 minutes. The luminescent signal was measured using a Tecan Infinite M1000 multimode microplate reader (Tecan, Morrisville, N.C.). The half maximal inhibitory concentration (IC50) was calculated using the GraphPad Prism 5 software (GraphPad Software, La Jolla, Calif.). “Thd” is thalidomide.

MDA-MB-231 = test: Cell growth inhibition (CellTiter-Glo), breast cancer line MDA-MB-231; assay type: cell-based, human; conditions: MDA-MB-231 breast cancer cell line, 4 days
Experimental: as §2

SUM-52 = test: Cell growth inhibition (CellTiter-Glo), breast cancer line SUM-52; assay type: cell-based; conditions: SUM-52 breast cancer cell line, 4 days
Experimental: as §2

BT-20 = test: Cell growth inhibition (CellTiter-Glo), breast cancer line BT-20; assay type: cell-based; conditions: BT-20 breast cancer cell line, 4 days
Experimental: as §2

HCC70 = test: Cell growth inhibition (CellTiter-Glo), breast cancer line HCC70; assay type: cell-based; conditions: 4 days
Experimental: as §2

SW620 = test: Cell growth inhibition (CellTiter-Glo), colon cancer line SW620; assay type: cell-based
Experimental: as §1, with “Appl. No. 62/121,637, having the following structure:” for “Appl.”
(§3) Cell growth inhibitory activity of representative BET bromodomain degraders in representative colon cancer cell lines, see Table 7, was determined as described in Example 17.

SW480 = test: Cell growth inhibition (CellTiter-Glo), colon cancer line SW480; assay type: cell-based
Experimental: as §1, with “Appl. No. 62/121,637, having the following structure:” for “Appl.”
as §3

HCT116 = test: Cell growth inhibition (CellTiter-Glo), colon cancer line HCT116; assay type: cell-based
Experimental: as §1, with “Appl. No. 62/121,637, having the following structure:” for “Appl.”
as §3

SW948 = test: Cell growth inhibition (CellTiter-Glo), colon cancer line SW948; assay type: cell-based
Experimental: as §1, with “Appl. No. 62/121,637, having the following structure:” for “Appl.”
as §3

T84 = test: Cell growth inhibition (CellTiter-Glo), colon cancer line T84; assay type: cell-based
Experimental: as §1, with “Appl. No. 62/121,637, having the following structure:” for “Appl.”
as §3

LS1034 = test: Cell growth inhibition (CellTiter-Glo), colon cancer line LS1034; assay type: cell-based
Experimental: as §1, with “Appl. No. 62/121,637, having the following structure:” for “Appl.”
as §3

Compound: Cc1sc2c(c1C)C(c1ccc(Cl)cc1)=N[C@@H](CC(=O)NCCCCNC(=O)COc1cccc3c1C(=O)N(C1CCC(=O)NC1=O)C3=O)c1nnc(C)n1-2 (some centres unmarked) [dBET1, reference compound]
- IC50 (CALU-1): 3100 nM
- IC50 (H1975): > 5000 nM
- IC50 (H1650): 2300 nM
- IC50 (H2009): > 5000 nM
- IC50 (H1792): > 5000 nM
- IC50 (H2030): > 5000 nM
- IC50 (H2228): > 5000 nM
- IC50 (H1437): > 5000 nM
- IC50 (H460): > 5000 nM
- IC50 (H647): > 5000 nM
- IC50 (H23): > 5000 nM
- IC50 (HCC38): 3700 nM
- IC50 (MDA-MB-231): 1830 nM
- IC50 (SUM-52): > 5000 nM
- IC50 (BT-20): > 5000 nM
- IC50 (HCC70): > 5000 nM
- IC50 (SW620): > 5000 nM
- IC50 (SW480): > 5000 nM
- IC50 (HCT116): > 5000 nM
- IC50 (SW948): > 5000 nM
- IC50 (T84): > 5000 nM
- IC50 (LS1034): > 5000 nM

Compound: CCn1nc(C2CC2)cc1Nc1nc(C(=O)NCCCCNc2cccc3c2C(=O)N(C2CCC(=O)NC2=O)C3=O)nc2[nH]c3cc(-c4c(C)noc4C)c(OC)cc3c12 (centres unmarked) [Cpd. No. 9]
- IC50 (CALU-1; Homo sapiens, 96 h): 9 nM
- IC50 (H1975; Homo sapiens, NCI-H1975, 96 h): 16 nM
- IC50 (H1650; Homo sapiens, NCI-H1650, 96 h): 8 nM
- IC50 (H2009; Homo sapiens, NCI-H2009, 96 h): 34 nM
- IC50 (H1792; Homo sapiens, NCI-H1792, 96 h): 151 nM
- IC50 (H2030; Homo sapiens, NCI-H2030, 96 h): 269 nM
- IC50 (H2228; Homo sapiens, NCI-H2228, 96 h): 610 nM
- IC50 (H1437; Homo sapiens, NCI-H1437, 96 h): 818 nM
- IC50 (H460; Homo sapiens, NCI-H460, 96 h): 51000 nM
- IC50 (H647; Homo sapiens, NCI-H647, 96 h): 789 nM
- IC50 (H23; Homo sapiens, NCI-H23, 96 h): 3070 nM
- IC50 (SW620; Homo sapiens, SW-620): 1040 ± 1040 nM
- IC50 (SW480; Homo sapiens): 247 ± 60 nM
- IC50 (HCT116; Homo sapiens, HCT-116): 585 ± 70 nM
- IC50 (SW948; Homo sapiens): 1000 ± 1070 nM
- IC50 (T84; Homo sapiens): 690 ± 300 nM
- IC50 (LS1034; Homo sapiens, LS-1034): 368 ± 170 nM

Compound: CCn1nc(C2CC2)cc1Nc1nc(C(=O)NCCCOCCOCCOCCCNc2cccc3c2C(=O)N(C2CCC(=O)NC2=O)C3=O)nc2[nH]c3cc(-c4c(C)noc4C)c(OC)cc3c12 (centres unmarked) [Cpd. No. 4]
- IC50 (CALU-1; Homo sapiens, 96 h): 2 nM
- IC50 (H1975; Homo sapiens, NCI-H1975, 96 h): 3 nM
- IC50 (H1650; Homo sapiens, NCI-H1650, 96 h): 4 nM
- IC50 (H2009; Homo sapiens, NCI-H2009, 96 h): 16 nM
- IC50 (H1792; Homo sapiens, NCI-H1792, 96 h): 48 nM
- IC50 (H2030; Homo sapiens, NCI-H2030, 96 h): 137 nM
- IC50 (H2228; Homo sapiens, NCI-H2228, 96 h): 174 nM
- IC50 (H1437; Homo sapiens, NCI-H1437, 96 h): 329 nM
- IC50 (H460; Homo sapiens, NCI-H460, 96 h): 505 nM
- IC50 (H647; Homo sapiens, NCI-H647, 96 h): 598 nM
- IC50 (H23; Homo sapiens, NCI-H23, 96 h): 612 nM
- IC50 (HCC38; Homo sapiens, 96 h): 4 nM
- IC50 (MDA-MB-231; Homo sapiens, 96 h): 4 nM
- IC50 (SUM-52; SUM52, 96 h): 8 nM
- IC50 (BT-20; Homo sapiens, 96 h): 25 nM
- IC50 (HCC70; Homo sapiens, 96 h): 35 nM
- IC50 (SW620; Homo sapiens, SW-620): 38 ± 5 nM
- IC50 (SW480; Homo sapiens): 37 ± 10 nM
- IC50 (HCT116; Homo sapiens, HCT-116): 130 ± 30 nM
- IC50 (SW948; Homo sapiens): 197 ± 160 nM
- IC50 (T84; Homo sapiens): 110 ± 30 nM
- IC50 (LS1034; Homo sapiens, LS-1034): 97 ± 20 nM

Compound: CCn1nc(C2CC2)cc1Nc1nc(COC)nc2[nH]c3cc(-c4c(C)noc4C)c(OC)cc3c12 [Cpd. A, reference compound]
- IC50 (CALU-1; Homo sapiens, 96 h): 2520 nM
- IC50 (H1975; Homo sapiens, NCI-H1975, 96 h): 40 nM
- IC50 (H1650; Homo sapiens, NCI-H1650, 96 h): 430 nM
- IC50 (H2009; Homo sapiens, NCI-H2009, 96 h): 170 nM
- IC50 (H1792; Homo sapiens, NCI-H1792, 96 h): 130 nM
- IC50 (H2030; Homo sapiens, NCI-H2030, 96 h): 110 nM
- IC50 (H2228; Homo sapiens, NCI-H2228, 96 h): 2400 nM
- IC50 (H1437; Homo sapiens, NCI-H1437, 96 h): 140 nM
- IC50 (H460; Homo sapiens, NCI-H460, 96 h): 1790 nM
- IC50 (H647; Homo sapiens, NCI-H647, 96 h): 80 nM
- IC50 (H23; Homo sapiens, NCI-H23, 96 h): 130 nM
- IC50 (HCC38; Homo sapiens, 96 h): 60 nM
- IC50 (MDA-MB-231; Homo sapiens, 96 h): 220 nM
- IC50 (SUM-52; SUM52, 96 h): 390 nM
- IC50 (BT-20; Homo sapiens, 96 h): 2410 nM
- IC50 (HCC70; Homo sapiens, 96 h): 580 nM
- IC50 (SW620; Homo sapiens, SW-620): > 2500 nM
- IC50 (SW480; Homo sapiens): 567 ± 10 nM
- IC50 (HCT116; Homo sapiens, HCT-116): 1160 ± 179 nM
- IC50 (SW948; Homo sapiens): > 2500 nM
- IC50 (T84; Homo sapiens): 413 ± 100 nM
- IC50 (LS1034; Homo sapiens, LS-1034): 455 ± 430 nM
